Experimental data taken from US7276339B2 (H. Lundbeck A/S, priority 1998, dated 2007).
Entries after “also recorded” stand apart in the source; their conditions may differ. No end group written: not given here.

Experiments:
[1] = molecular target: rat spinal cord membrane receptor; experiment: [125I]D-Tyr-NPFF radioligand binding, rat spinal cord membranes; settings: competition of [125I]D-Tyr-NPFF binding; * = differs from NPFF1
Description: The binding profile of rat NPFF1 was compared to that of rat spinal cord membranes. […] (See * Table 2).

human NPFF2 receptor = molecular target: T1, human NPFF2 receptor (Homo sapiens, UniProt Q9Y5X5); experiment: [125I]D-Tyr-NPFF radioligand binding, HEK-293 cells expressing human NPFF2; settings: for Ki: Table 3, HEK-293 cells, [125I]D-Tyr-NPFF, read-out: pKi ± SEM, human NPFF2 (converted)
T1 construct: BO89, was determined to be a full length clone with no point mutations; expressed in transfected cells; host or cells: HEK-293 (transient)
T1 sequence (Q9Y5X5 103-522): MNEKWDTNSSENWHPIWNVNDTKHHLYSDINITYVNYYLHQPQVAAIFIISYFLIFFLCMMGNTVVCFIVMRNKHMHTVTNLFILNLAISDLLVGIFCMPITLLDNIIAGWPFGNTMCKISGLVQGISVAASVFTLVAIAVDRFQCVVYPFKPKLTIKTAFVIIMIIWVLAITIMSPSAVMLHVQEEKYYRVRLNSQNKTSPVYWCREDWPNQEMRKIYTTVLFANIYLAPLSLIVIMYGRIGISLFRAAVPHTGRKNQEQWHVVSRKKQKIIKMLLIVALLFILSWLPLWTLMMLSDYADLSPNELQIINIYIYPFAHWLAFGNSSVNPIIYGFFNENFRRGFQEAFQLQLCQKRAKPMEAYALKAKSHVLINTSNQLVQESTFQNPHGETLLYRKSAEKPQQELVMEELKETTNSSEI
Description: (§1) Transfected cells from culture flasks are scraped into 5 ml of 20 mM Tris-HCl, 5 mM EDTA, pH 7.5, and lysed by sonication. The cell lysates are centrifuged at 1000 rpm for 5 min. at 4° C., and the supernatant is centrifuged at 30,000×g for 20 min. at 4° C. The pellet is suspended in binding buffer (50 mM Tris-HCl, 60 mM NaCl, 1 mM MgCl, 33 μM EDTA, 33 μM EGTA at pH 7.4 supplemented with 0.2% BSA, 2 μg/ml aprotinin, and 20 μM bestatin). Optimal membrane suspension dilutions, defined as the protein concentration required to bind less than 10% of the added radioligand, are added to 96-well polpropylene microtiter plates containing ^3H-labeled compound, unlabeled compounds, and binding buffer to a final volume of 250 μl. In equilibrium saturation binding assays membrane preparations are incubated in the presence of increasing concentrations of [^3H]-labeled compound. The binding affinities of the different compounds are determined in equilibrium competition binding assays, using [^125I]-labeled compound in the presence of ten to twelve different concentrations of the displacing ligands. Competition assay: 50 pM radioligand, 10-12 points. Binding reaction mixtures are incubated for 2 hr at 25° C., and the reaction stopped by filtration through a double layer of GF filters treated with 0.1% polyethyleneimine, using a cell harvester. Wash buffer: 50 mM Tris-HCl, 0.1% BSA. Radioactivity may be measured by scintillation counting and data are analyzed by a computerized non-linear regression program. Non-specific binding is defined as the amount of radioactivity remaining after incubation of membrane protein in the presence of 1 μM final concentration […]. Protein concentration may be measured by the Bradford method using Bio-Rad Reagent, with bovine serum albumin as a standard.
(§2) Additional pharmacological evaluation was done using 293 human embryonic kidney cells (HEK-293 cells) transiently expressing the genes encoding the human NPFF1, NPFF2, and rat NPFF1 receptors, as well as Cos-7 cells expressing the rat NPFF2 receptors.

rat NPFF2 receptor = molecular target: T2, rat NPFF2 receptor (Rattus norvegicus, UniProt Q9EQD2); experiment: [125I]D-Tyr-NPFF radioligand binding, cloned rat NPFF2; settings: for Ki: Table 3, title HEK-293 cells (text: Cos-7), [125I]D-Tyr-NPFF, read-out: pKi ± SEM, rat NPFF2 (converted)
T2 construct: The full-length rat NPFF2 clone was amplified from rat spinal cord cDNA; expressed in transfected cells; host or cells: COS-7
T2 sequence (Q9EQD2 whole entry): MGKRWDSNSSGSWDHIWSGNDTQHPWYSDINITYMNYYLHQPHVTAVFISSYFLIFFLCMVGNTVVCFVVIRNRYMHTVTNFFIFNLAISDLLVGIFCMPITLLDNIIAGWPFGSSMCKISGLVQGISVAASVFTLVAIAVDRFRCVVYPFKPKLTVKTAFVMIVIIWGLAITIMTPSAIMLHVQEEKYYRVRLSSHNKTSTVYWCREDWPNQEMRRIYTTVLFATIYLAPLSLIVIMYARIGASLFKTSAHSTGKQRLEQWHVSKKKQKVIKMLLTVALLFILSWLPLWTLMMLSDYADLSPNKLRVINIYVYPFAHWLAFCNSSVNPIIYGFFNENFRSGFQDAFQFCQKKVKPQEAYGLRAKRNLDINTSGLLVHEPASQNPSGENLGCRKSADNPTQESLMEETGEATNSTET
Description: as §1, §2

anesthetized rats = experiment: Distension-induced rhythmic contraction (DIRC) model of the micturition reflex in anesthetized rats; type: in vivo, rat; settings: i.v.; fPP 0.1 mg/kg
Description: The effects of compounds on the micturition reflex were assessed in the “distension-induced rhythmic contraction” (DIRC) model in rats. This model of the micturition reflex has been described in previous publications (e.g. 72, 73).
Female Sprague Dawley rats weighing approximately 300 g were anesthetized with subcutaneous urethane (1.2 g/kg). The trachea was cannulated with PE240 tubing to provide a clear airway throughout the experiment. A midline abdominal incision was made and the left and right ureters were isolated. The ureters were ligated distally (to prevent escape of fluids from the bladder) and cannulated proximally with PE10 tubing. The incision was closed using 4-0 silk sutures, leaving the PE10 lines routed to the exterior for the elimination of urine. The bladder was canulated via the transurethral route using PE50 tubing inserted 2.5 cm beyond the urethral opening. This cannula was secured to the tail using tape and connected to a pressure transducer. To prevent leakage from the bladder, the cannula was tied tightly to the exterior urethral opening using 4-0 silk.
To initiate the micturition reflex, the bladder was first emptied by applying pressure to the lower abdomen, and then filled with normal saline in 100 μl increments (maximum=2 ml) until spontaneous bladder contractions occurred (typically 20-40 mmHg at a rate of one contraction every 2 to 3 minutes. Once a regular rhythm was established, vehicle (saline) or test compounds were administered intravenously to examine their effects on bladder activity. The effect of a compound which inhibited the micturition reflex was expressed as its “disappearance time”, defined as the time between successive bladder contractions in the presence of the test compound minus the time between contractions before compound administration.

rat NPFF1 receptor [2] = molecular target: T3, rat NPFF1 receptor (Rattus norvegicus, UniProt Q9EP86); experiment: [125I]D-Tyr-NPFF radioligand binding, membranes of COS-7 cells transiently expressing cloned rat NPFF1; set-up: expressed in transfected cells; host or cells: COS-7 (transient)
T3 sequence (Q9EP86 whole entry): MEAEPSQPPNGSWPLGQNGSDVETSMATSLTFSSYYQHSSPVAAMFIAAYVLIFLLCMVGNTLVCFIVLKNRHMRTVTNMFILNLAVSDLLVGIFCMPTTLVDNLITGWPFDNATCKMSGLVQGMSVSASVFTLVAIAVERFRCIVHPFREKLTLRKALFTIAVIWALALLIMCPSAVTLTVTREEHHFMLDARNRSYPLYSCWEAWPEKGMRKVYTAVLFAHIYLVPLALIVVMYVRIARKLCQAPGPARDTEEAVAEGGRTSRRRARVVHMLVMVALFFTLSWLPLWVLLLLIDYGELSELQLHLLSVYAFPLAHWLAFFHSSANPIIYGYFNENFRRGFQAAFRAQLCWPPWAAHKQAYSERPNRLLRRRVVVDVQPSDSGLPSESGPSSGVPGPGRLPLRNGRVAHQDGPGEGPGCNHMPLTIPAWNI
Description: as §1, with “The pellet is suspended in binding buffer (50 mM Tris-HCl, 60 mM NaCl, 1 mM MgCl, 33 μM EDTA, 33 μM EGTA at pH 7.4 supplemented with 0.2% BSA, 2 μg/ml aprotinin, and 20 μM bestatin).” left out, “[…],” for “are added to 96-well polpropylene microtiter plates containing ^3H-labeled compound,”, “The binding affinities of the different compounds are determined in equilibrium competition binding assays, using [^125I]-labeled compound in the presence of ten to twelve different concentrations of the displacing ligands.” left out
Cos-7 cells transiently expressing the gene encoding the novel rat NPFF1 receptor were used for pharmacological evaluation.

NPFF2 (NPFF-like) = molecular target: T4, NPFF2 (NPFF-like) (Homo sapiens, UniProt Q9Y5X5); experiment: Voltage-clamp electrophysiology, Xenopus oocytes injected with NPFF-like (NPFF2) and chimeric Gαq/z RNA; type: cell-based; settings: 1 μM, holding potential −80 mV
T4 construct: linearized plasmids or PCR products containing the complete coding region of the genes; expressed in transfected cells; host or cells: Xenopus laevis oocytes injected with mRNA from ligation PCR products or linearized BO89
T4 sequence (Q9Y5X5 103-522): as the sequence (Q9Y5X5 103-522) above
Description: For expression of NPFF2, mRNA transcripts were generated as described for NPFF1, using PCR products from ligation reactions or linearized DNA from BO89 as DNA templates. Oocytes were injected with 5-50 ng NPFF2 mRNA and incubated as previously described.
(§3) Oocytes were harvested from Xenopus laevis and injected with mRNA transcripts as previously described (Quick and Lester, 1994; Smith et al., 1997). […] Three to eight hours prior to recording, oocytes were injected with 500 pg Gαq/z mRNA in order to observe coupling to Ca^++ activated Cl^− currents. Dual electrode voltage clamp (Axon Instruments Inc.) was performed using 3 M KCl-filled glass microelectrodes having resistances of 1-2 Mohm. Unless otherwise specified, oocytes were voltage clamped at a holding potential of −80 mV. During recordings, oocytes were bathed in continuously flowing (1-3 ml/min) medium containing 96 mM NaCl, 2 mM KCl, 1.8 mM CaCl2, 1 mM MgCl2, and 5 mM HEPES, pH 7.5 (ND96). Drugs were applied either by local perfusion from a […] glass capillary tube fixed at a distance of 0.5 mm from the oocyte, or by switching from a series of gravity fed perfusion lines.
(§4) Heterologous expression of GPCRs in Xenopus oocytes has been widely used to determine the identity of signaling pathways activated by agonist stimulation (Gundersen et al., 1983; Takahashi et al., 1987). Activation of the phospholipase C (PLC) pathway is assayed by applying test compound in ND96 solution to oocytes previously injected with mRNA for the mammalian receptor and observing inward currents at a holding potential of −80 mV. The appearance of currents that reverse at −25 mV and display other properties of the Ca^++-activated Cl^− (chloride) channel is indicative of mammalian receptor-activation of PLC and release of IP3 and intracellular Ca^++.

human NPFF1 receptor = molecular target: T5, human NPFF1 receptor (Homo sapiens, UniProt Q9GZQ6); experiment: [125I]D-Tyr-NPFF radioligand binding, HEK-293 cells expressing human NPFF1; settings: Table 3, read-out: pKi ± SEM, human NPFF1 (converted)
T5 construct: To obtain a full-length hNPFF1 construct in the correct orientation; expressed in transfected cells; host or cells: HEK-293 (transient)
T5 sequence (Q9GZQ6 whole entry): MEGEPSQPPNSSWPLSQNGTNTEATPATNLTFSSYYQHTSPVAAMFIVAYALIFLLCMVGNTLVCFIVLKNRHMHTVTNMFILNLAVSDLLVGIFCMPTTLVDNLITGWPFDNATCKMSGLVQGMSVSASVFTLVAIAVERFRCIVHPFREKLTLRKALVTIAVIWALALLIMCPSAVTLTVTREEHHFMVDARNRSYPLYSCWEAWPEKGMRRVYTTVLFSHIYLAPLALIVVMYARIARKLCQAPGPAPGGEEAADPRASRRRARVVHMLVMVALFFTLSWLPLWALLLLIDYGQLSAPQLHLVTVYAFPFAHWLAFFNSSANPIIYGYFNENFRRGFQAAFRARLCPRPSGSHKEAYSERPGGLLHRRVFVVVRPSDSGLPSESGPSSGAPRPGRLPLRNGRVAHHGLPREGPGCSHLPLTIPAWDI
Description: as §1, §2

rat NPFF1 receptor [3] = molecular target: T3, rat NPFF1 receptor; experiment: [125I]D-Tyr-NPFF radioligand binding, HEK-293 cells expressing rat NPFF1; set-up: expressed in transfected cells; settings: Table 3, read-out: pKi ± SEM, rat NPFF1 (converted)
Description: as §1, §2

NPFF1 (SNORF2) = molecular target: T6, NPFF1 (SNORF2) (Rattus norvegicus, UniProt Q9EP86); experiment: Voltage-clamp electrophysiology, Xenopus oocytes injected with SNORF2 (NPFF1) and chimeric Gαq/z RNA; type: cell-based; settings: 1 μM; oocytes with SNORF2 + Gαq/z; holding potential −80 mV
T6 construct: linearized plasmids or PCR products containing the complete coding region of the genes; expressed in transfected cells; host or cells: Xenopus laevis oocytes injected with synthetic RNA (T7 transcripts)
T6 sequence (Q9EP86 whole entry): as the sequence (Q9EP86 whole entry) above
Description: as §3, §4

NPFF receptors = settings: 10 μM; cited from earlier work

Compound	pKi for rat spinal cord membrane receptor binding, MEAN [1]	inward current response (NPFF2 (NPFF-like))	Ki (human NPFF1 receptor)	Ki (human NPFF2 receptor)	Ki (rat NPFF2 receptor)	Ki (rat NPFF1 receptor [3])	also measured
APSEPHHPGDQATQDQLAQYYSDLYQYITFVTRPRF-NH2 (C-terminus assumed) [fPP]	*9.118	–	–	–	–	–	fold greater affinity for human NPFF2 compared to human NPFF1 (human NPFF2 receptor; from competition binding pKi): 77 fold; fold greater affinity for rat NPFF2 compared to rat NPFF1 (rat NPFF2 receptor; from competition binding pKi): 31 fold; effect on distension-induced rhythmic contractions of the bladder (anesthetized rats): inhibited; pKi for cloned rat NPFF1 receptor binding in COS-7 cells, MEAN (rat NPFF1 receptor [2]; competition of [125I]D-Tyr-NPFF binding, COS-7 membranes): 5.5; displacement of [125I]D-Tyr-NPFF binding on the NPFF1 receptor (rat NPFF1 receptor [2]; up to 1 uM): did not displace
orexin A (QPLPDCCRQKTCSCRLYELLHGAGNHAAGILTL; ends and bridges not checked; cysteine pairing not given here; UniProt O43612 34-66, looked up)	–	failed to activate; also recorded: no response	–	–	–	–	–
CSCC[C@@H](NC(=O)[C@@H](N)Cc1ccccc1)C(=O)N[C@@H](CCCNC(=N)N)C(=O)N[C@@H](Cc1ccccc1)C(N)=O [D-Met-FMRF amide]	–	–	251 nM	398 nM	631 nM	631 nM	–
H-AGEGLSSPFWSLAAPQRF-NH2 [A18Fa]	*9.000	activated similar inward currents	63.1 nM	1.26 nM	6.31 nM	31.6 nM	inward current response (NPFF1 (SNORF2)): robust inward currents
CSCC[C@H](NC(=O)[C@H](CC(C)C)NC(=O)CNC(=O)[C@H](Cc1ccccc1)NC(=O)[C@H](Cc1ccccc1)NC(=O)[C@H](CCC(N)=O)NC(=O)[C@H](CCC(N)=O)NC(=O)[C@@H]1CCCN1C(=O)[C@H](CCCCN)NC(=O)[C@@H]1CCCN1C(=O)[C@@H](N)CCCN=C(N)N)C(N)=O [substance P]	–	–	–	–	–	–	inhibition of [125I](1DMe)Y8Fa binding (NPFF receptors): No inhibition
